Here are results for one compound from patent publication US8293506B2, “L-cysteine-producing bacterium and a method for producing L-cysteine” (Ajinomoto Co., Inc., priority 2009, dated 2012).

Each structure is given as a SMILES string.

The test system of experiment [1] is dsbA-deficient strain JW3832/pCA24. The experiment can be described thus: Growth test on L agar medium containing cysteine, dsbA-deficient strain. It is filed as cell-based, Escherichia coli. The note with it: L agar with 10, 15, 20 mM cysteine, 37° C. overnight; FIG. 1. The text has this:
(§1) Since a dsbA-deficient strain was obtained by the screening of the Keio Collection, growth of the gene-deficient strain was observed on the agar medium containing cysteine of different concentrations in order to analyze the sensitivity of that strain to cysteine in more detail. Furthermore, as for the to/C gene (Japanese Patent Application No. 2008-040167, Wiriyathanawudhiwong, N. et al., Appl. Microbiol. Biotechnol. (2009) 81:903-913), which was previously obtained in a similar manner, and of which deletion is known to induce cysteine sensitivity, a similar experiment was performed by using a to/C-deficient strain. The dsbA-deficient strain and to/C-deficient strain used in this experiment were JW3832 strain and JW5503 strain, respectively (both were included in the Keio collection), and their parent strain was the BW25113 strain (Andreas Haldimann, A. and Wanner, B. L., J. Bacteriol., 2001 November, 183 (21):6384-6393). The plasmids carrying the dsbA gene and the to/C gene for the complementation experiment were pDsbA and pTo1C (ASKA clone (Kitagawa, M., et al., 2005, DNA Res., 12:291-299)), and the vector used as the base of them was pCA24 (vector for ASKA clone (Kitagawa, M., et al., 2005, DNA Res., 12:291-299)). […]

The subject of experiment [2] is to/C-deficient strain JW5503/pCA24. The experiment can be described thus: Growth test on L agar medium containing cysteine, tolC-deficient strain. It is filed as cell-based, Escherichia coli. The note with it: L agar with 10, 15, 20 mM cysteine, 37° C. overnight; FIG. 1.
From the text: as §1

The next experiment deals with OstA protein. In words: Oxidized and reduced states of OstA protein (AMS modification, Western blotting). Format: cell-based, Escherichia coli. The note with it: wild-type strain with pmyc-OstA, 5 mM L-cysteine; FIG. 3. The text has this: Since it was elucidated that the reduced type DsbA was accumulated by cysteine (reduction stress), it was decided to investigate toxicity of cysteine and oxidized and reduced states of a protein in the periplasm. The OstA is a protein in the periplasm indispensable to growth, and requires disulfide bond formed by DsbA. In order to investigate the oxidized and reduced states of the OstA protein, the E. coli BW25113 strain as the wild-type parent strain and the dsbA-deficient JW3832 strain derived from the BW25113 strain were used, and the plasmid pmyc-OstA for expressing OstA fused with an Myc tag (Kadokura, H. et al., 2004, Science, 303, 534-537) was introduced into them. Under the same culture conditions as those of the aforementioned experiment for investigating the oxidized and reduced states of DsbA, addition of L-cysteine (final concentration: 5 mM) and modification of the protein with AMS (4-acetamido-4′-maleimidyl-stilbene-2,2′-disulfonate) were performed, and the OstA protein was detected by Western blotting. As the antibody, anti-Myc (mouse) was used in this experiment.
In general terms: A western blot detects proteins with antibodies after separation by electrophoresis.

Experiment [3] relates to wild-type strains (E. coli BW25113). In words: Screening of Keio collection on LB agar containing cysteine. It is filed as cell-based, Escherichia coli. The note with it: overnight at 37° C. How it is done:
The 3,985 clones of the Keio collection were cultured at 37° C. for 15 hours in 0.5 ml of LB liquid medium. This culture medium was stamped on LB agar media containing cysteine at different concentrations (0, 15, 20, 25 mM), and culture was performed overnight at 37° C. Clones that were cysteine sensitive at the growth inhibition concentration of cysteine for wild-type strains (20 mM) were visually selected. […] A dsbA gene-deficient strain was obtained as a clone showing particularly strong and distinctive cysteine sensitivity among the above candidates.

For another experiment, the target named is T1, DsbA protein (Escherichia coli, UniProt P0AEG4).
T1 construct: endogenous in cells; host or cells: E. coli BW25113 (wild-type strain, also with pYdeD)
In words: Oxidized and reduced states of DsbA protein (AMS modification, Western blotting). Format: cell-based. The note with it: wild-type strain, 5 mM cysteine, 20 minutes; FIG. 2. The text has this:
The strains used in this experiment were the E. coli BW25113 strain (Andreas Haldimann and Barry L. Wanner, J. Bacteriol., 2001 November, 183 (21):6384-6393) as a wild-type parent strain, the dsbA-deficient JW3832 strain and dsbB-deficient JW5182 strain derived from BW25113 strain (Baba, T, et al., 2006, Mol. Syst. Biol., 2:2006.0008). As a plasmid carrying the dsbB gene, pDsbB (ASKA clone, Kitagawa, M. et al., 2005, DNA Res., 12:291-9) was used.
In order to distinguish the oxidized state and the reduced state of the DsbA protein, the protein was modified with AMS (4-acetamido-4′-maleimidyl-stilbene-2,2′-disulfonate) (Kadokura, H. et al., 2004, Science, 303, 534-537). Each of the wild-type strain, the dsbA-deficient strain, the dsbB-deficient strain, the wild-type strain +pYdeD and the dsbB-deficient strain +pDsbB was cultured overnight at 30° C. in 3 ml of LB medium, and the resulting culture was used as a preculture medium. The preculture medium was inoculated into the LB medium in a 1% amount, and culture was performed at 30° C. with shaking until OD660 reached 0.4 to 0.5. […]
The labeled protein was then separated by non-reduced SDS gel electrophoresis (12.5%), and then detected by Western blotting. […] The label was detected by using ECL Plus Western Blotting Detection Reagents (Amersham).

T1 sequence (P0AEG4 20-208): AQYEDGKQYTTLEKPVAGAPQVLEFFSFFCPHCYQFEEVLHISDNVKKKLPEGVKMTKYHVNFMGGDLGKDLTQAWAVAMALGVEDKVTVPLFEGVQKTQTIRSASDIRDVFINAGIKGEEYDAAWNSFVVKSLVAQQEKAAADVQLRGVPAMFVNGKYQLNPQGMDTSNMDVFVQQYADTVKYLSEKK

In the case of `N[C@@H](CS)C(=O)O` [cysteine, L-cysteine], in experiment [1], the “cysteine sensitivity (growth) compared with control strain BW25113/pCA24” value is reported as “marked cysteine sensitivity”. For the same compound, in experiment [2], the “cysteine sensitivity (growth) compared with control strain BW25113/pCA24” value was “marked cysteine sensitivity”. For the same compound, the “oxidized/reduced state of OstA after addition of cysteine” value in the experiment on OstA protein is reported as “the reduced type accumulated”. The “growth inhibition concentration of cysteine for wild-type strains” value in experiment [3] amounted to 20 mM. On DsbA protein, the “DsbA-DsbB complex after exposure to cysteine” value is “markedly accumulated” and the “oxidized/reduced state of DsbA after exposure to cysteine” value is “the reduced type DsbA accumulated”.
